This is an account of results in US4789675A, “1,4-benzoxazine derivatives and pharmaceutical use” (priority 1986, dated 1988).

The subject of data set [1] is contraction of rabbit aorta strip caused by KCl. Put plainly: Vasodilating action: inhibition of contraction of aorta strip caused by KCl. The following applies: Oryctolagus cuniculus, compound 10^-5 M, KCl (6.0 mM), read-out: Inhibitory percent against contraction (KCl). The method, then:
(§1) A spiral strip of aorta of a rabbit (2 to 3 mm width, about 3 cm length) was allowed to equilibrate by hanging under 2 g force in a Krebs-Henseleitsolution. The solution was saturated with a mixture gas of 97% O2 -3% CO2 which was warmed to 37° C. Inhibitory actions of compounds (10^-5 M) of this invention against contraction of the aorta strip caused by KCl ([…]), norepinephrine (NE) (10^-6 M) or serotonin (5-HT) (10^-6 M), by treating the strip with a compound of this invention 30 minutes before the test (15 minutes in the case of 5-HT), are shown in Table 1 as inhibitory percentage.

The test system of data set [2] is contraction of rabbit aorta strip caused by norepinephrine (NE). The data set is described as follows: Vasodilating action: inhibition of contraction of aorta strip caused by norepinephrine (NE). The following applies: Oryctolagus cuniculus, compound 10^-5 M, NE 10^-6 M, read-out: Inhibitory percent against contraction (NE). On the procedure: as §1
Data set [3] concerns contraction of rabbit aorta strip caused by serotonin (5-HT). Put plainly: Vasodilating action: inhibition of contraction of aorta strip caused by serotonin (5-HT). The following applies: Oryctolagus cuniculus; compound 10^-5 M; 5-HT 10^-6 M; treated 15 minutes before the test; read-out: Inhibitory percent against contraction (5-HT). On the procedure:
as §1

Data set [4] concerns Spontaneously hypertensive rats. The data set is described as follows: Antihypertensive action in spontaneously hypertensive rats (tail-cuff). It is filed as in vivo, rat. As to conditions: 1 hour after administration. On the procedure: Spontaneously hypertensive rats (male, 12 to 13 weeks old, blood pressure before administration of drug was about 200 mmHg) were used in groups of 3 individuals. After measuring tail arterial pressure of these animals by the tail-cuff method, the animals were orally given 3 to 60 mg/kg of each test compound of this invention as 2 ml of its suspension in gum arabic. Blood pressure measurements were made again one hour after administration of each test compound.

Data set [5] deals with ischemia-reperfusion-induced ventricular arrhythmia in rats. Put plainly: Effect on the ischemia-reperfusion-induced ventricular arrhythmia in rats. It is filed as in vivo, rat. The following applies: for Cardiac arrest incidence / Ventricular fibrillation incidence / Ventricular tachycardia incidence: p.o., rats with change/rats used; for Cardiac arrest incidence: control 8/18; for Ventricular fibrillation incidence: control 17/18; for Ventricular tachycardia incidence: control 18/18. On the procedure:
Male Sprague-Dawley rats, 9 to 10 week old, were orally given the compounds or tap water at a volume of 5 ml/kg. After one hour, the animals were anesthetized with sodium pentobarbital (50 mg/kg, by intraperitoneal injection), and they were subjected to thoractomy under artificial respiration, and the left anterior descending coronary artery was occluded for five minutes. The incidences of ventricular tachycardia, ventricular fibrilation and cardiac arrest for ten minutes after reperfusion of the blood were calculated.

Data set [6] relates to acute renal failure in rats. Put plainly: Effect on acute renal failure in rats (plasma urea nitrogen, BUN). It is filed as in vivo, rat. The following applies: for BUN: p.o., control 27 ± 1, *P < 0.05. The method, then: Male sprague-Dawley rats, 6 week old, were orally given the compunds or tap water at a volume of 5 ml/kg. After one hour, the animals were anesthetized with sodium pentobarbital. The animals were subjected to laparotomy, and the left renal artery was clamped completely for one hour. The clamp was undone, and the incision was closed. The animals were again given orally the compounds or tap water 20 hours later. Further four hours later, the animals were again anesthetized, and the blood was obtained from the abdominal aorta. The plasma was separated for measurement of urea nitrogen (BUN).

The subject of data set [7] is caffeine-induced contraction of rabbit aorta strip depending on intracellular Ca^++. Put plainly: Intracellular Ca++ antagonism: inhibition of caffeine-induced contraction of aorta strip in Ca-free/EGTA solution. As to conditions: Oryctolagus cuniculus, caffeine 20 mM, Ca++ 0 mM, EGTA 5 mM, read-out: Inhibitory percent (caffeine contraction); for inhibition at 10 µM: compound 10^-5 M; for inhibition at 1 µM: compound 10^-6 M. On the procedure: A spiral strip of aorta of a rabbit (2 to 3 mm width, aobut 3 cm length) was allowed to equilibrate by hanging under 2 g force in a Krebs-Henseleitsolution. The solution was saturated with a mixture gas of 97% O2 -3% CO2, which was warmed to 37° C. The strip was moved into another Krebs-Henseleit solution containing Ca^++ OmM and EGTA 5 mM. Five minutes later, caffeine (20 mM) was added to the solution. The resulting contraction of the strip was made as the index of the contraction depending on intracellular Ca^++.

A short description of data set [8]: Acute toxicity (oral, 7 days observation). As to conditions: rat, in vivo, male rats, five animals/group, seven days. The source says:
Male Wister rats aged five weeks (five animals/group) were orally given the test compounds (Example No. 1, 14, 15 and 18) suspended in a 5% solution of gum arabic. Each animal so treated was observed over a period of seven days.

Data set [9] has as its system intracellular Ca^++. As to conditions: (2) Ca++ liberated from intracellular store; (3) influx through receptor-operated channel; cited from earlier work.
For data set [10] the following is noted: cited from earlier work.
The conditions of data set [11]: in vivo; cited from earlier work.
Setting [12] is: treated 30 minutes before the test.

Counter-ions that a name gives are not always drawn. Like-named read-outs stand apart in the source and are kept apart here. Some results are limits rather than exact numbers.

Regarding `O=C1Nc2cc3c(cc2OC1CCCN1CCN(c2ccc(F)cc2)CC1)CCCC3` (centres unmarked) [1 (2HCl salt), 2-{3-[4-(4-fluorophenyl)-1-piperazinyl]propyl}-6,7,8,9-tetrahydro-2H-naphtho[2,3-b][1,4]oxazin-3(4H)-one], the figures for the inhibition at 10 µM in data set [1] (treating 3 hours before the test (*1)), in data set [2] (treating 2 hours before the test (*2)) and in [3] were 82%, 95% and 52%, respectively. Besides, the “Antihypertensive effect (Δ mm Hg)” value was determined as 30 mm Hg in data set [4] (3 mg/kg oral) and 50 mm Hg in [4] (10 mg/kg oral). Moreover, the Cardiac arrest incidence in data set [5] (3 mg/kg) is on record as 2/9; in [5] (10 mg/kg) it was 4/11; in data set [5] (20 mg/kg), 0/5. Also, the Ventricular fibrillation incidence was 5/9 in [5] (3 mg/kg, *P < 0.05); 5/11 in data set [5] (10 mg/kg, **P < 0.01); 0/5 in data set [5] (20 mg/kg, **P < 0.01). The Ventricular tachycardia incidence is 7/9 in data set [5] (3 mg/kg); 7/11 in data set [5] (10 mg/kg, **P < 0.01); 2/5 in data set [5] (20 mg/kg, **P < 0.01). Also, the values for the BUN in [6] (1 mg/kg), in data set [6] (3 mg/kg) and in data set [6] (10 mg/kg) were 24 ± 0.5 mg/dL, 22 ± 2 mg/dL and 23 ± 0.5 mg/dL, respectively.
The LD50 is the dose expected to kill half of the subjects tested. Lower therefore signals greater toxicity. In the case of `O=C1Nc2cc3c(cc2OC1CCCN1CCN(c2ccc(F)cc2)CC1)CCCC3` (centres unmarked) [Example 1, 2-{3-[4-(4-fluorophenyl)-1-piperazinyl]propyl}-6,7,8,9-tetrahydro-2H-naphtho[2,3-b][1,4]oxazin-3(4H)-one], in data set [7], the inhibition at 10 µM stood at 87% and the inhibition at 1 µM turned out to be 60%. The “incidences of cardiac functional abnormalities” value in data set [5] (3, 10, and 20 mg/kg given orally) was “inhibited the incidences of cardiac functional abnormalities in a dose-dependent manner”. Further, the “increase in BUN” value in [6] (1, 3 and 10 mg/kg given orally) is “inhibited the increase in BUN”. Also, the LD50 at 168 h in data set [8] was ≥ 300 mg/kg.
Regarding `CCN(CC)CCCCCCCCOC(=O)c1cc(OC)c(OC)c(OC)c1` [TMB-8], the inhibition at 10 µM in data set [7] turned out to be 48%. The “action on intracellular Ca++” value in [9] is “weak in action”. Further, in [10], the “antihypertensive action in vivo” value is recorded as “do not display antihypertensive action in vivo”.
With `COc1ccccc1N1CCN(CCCC2Oc3cc4c(cc3NC2=O)CCCC4)CC1` (centres unmarked) [Example 15], the values for the inhibition at 10 µM in [1] (setting [12]) and in data set [2] (setting [12]) were 8% and 100%, respectively. In data set [7], the inhibition at 1 µM worked out at 58%. Also, in data set [4] (3 mg/kg oral), the “Antihypertensive effect (Δ mm Hg)” value worked out at 49 mm Hg. The LD50 at 168 h in data set [8] was ≥ 300 mg/kg.
Turning to `O=C1Nc2cc3c(cc2OC1CCCN1CCN(c2cccc(F)c2)CC1)CCCC3` (centres unmarked) [Example 14], in [7], the inhibition at 1 µM was 61%. For the same molecule, the “Antihypertensive effect (Δ mm Hg)” value in data set [4] (3 mg/kg oral) is given as 54 mm Hg. For the same molecule, in data set [8], the median lethal dose (LD50) at 168 h was ≥ 300 mg/kg.
For `CN1CCN(CCCN2c3ccccc3Sc3ccc(C(F)(F)F)cc32)CC1` [trifluoperazine], the “action on intracellular Ca++” value in data set [9] was “showing antagonism against intracellular Ca^++”. Besides, the side effects entry in data set [11] is “side effects e.g. on the central nervous system”.
Take `COC(=O)C1=C(C)NC(C)=C(C(=O)OC)C1c1ccccc1[N+](=O)[O-]` [nifedipine]: the “action on intracellular Ca++” value in [9] was “hardly acts on (2) and (3)”.
`O=C1Nc2cc3c(cc2OC1CCCN1CCN(c2ccccc2)CC1)CCCC3` (centres unmarked) [Example 18]: the inhibition at 1 µM in data set [7] stood at 59%. The “Antihypertensive effect (Δ mm Hg)” value in data set [4] (3 mg/kg oral) worked out at 32 mm Hg. In addition, in [8], the 50% lethal dose (LD50) at 168 h is ≥ 300 mg/kg.
Take `COc1cc2nc(N3CCN(C(=O)c4ccco4)CC3)nc(N)c2cc1OC` [prazosin]: the side effects entry in data set [11] is listed as “orthostatic hypotension often observed”.
As for `NCCCCCCNS(=O)(=O)c1cccc2c(Cl)cccc12` [Example W-7], in data set [9], the “action on intracellular Ca++” value is on record as “weak in action”.
